This is an account of results in patent publication US20130296384A1, “N-SUBSTITUTED(6 HALOALKYLPYRIDIN 3 YL)ALKYL SULFOXIMINES AS A SEED TREATMENT TO CONTROL COLEOPTERAN INSECTS” (Dow AgroSciences LLC, priority 2012, published 2013).

The subject of test [1] is canola (Brassica napus). Put plainly: Canola seed treatment field test: canola plant vigor under natural flea beetle infestation. Format: in vivo. To be noted: 13 days after canola emergence. How it is done:
(§1) The effectiveness of sulfoxaflor as a canola (Brassica napus) seed treatment to control feeding damage by cabbage flea beetle (Phyllotreta cruciferae) was evaluated against the commercial standard thiamethoxam (Helix Xtra). Canola seeds were sprayed with a range of insecticides, including Helix Xtra at a use rate of about 0.4 milligrams (mg) thiamethoxam ai/seed, spinosyn A and spinosyn D (spinosad) at a low use rate of about 0.2 mg ai/seed and a high use rate of about 0.6 mg ai/seed, spinetoram at a low use rate of about 0.2 mg ai/seed and a high use rate about 0.6 mg ai/seed, and sulfoxaflor at a low use rate of about 0.2 mg ai/seed and a high use rate about 0.6 mg ai/seed. Each treatment was replicated four (4) times. The canola seeds were planted and then exposed to a natural infestation of the cabbage flea beetles soon after emergence.
Canola plant vigor was evaluated at thirteen (13) days after the canola seed emerged from the ground described above. […] As depicted in FIG. 3, both the low use rate of sulfoxaflor and the high use rate of sulfoxaflor facilitated improved canola plant vigor as compared to the use of Helix Xtra.

The subject of test [2] is canola (Brassica napus). Put plainly: Canola seed treatment field test: canola plant yield under natural flea beetle infestation. It is filed as in vivo. The note with it: 107 days after canola emergence. As for the experimental part:
as §1
Canola plant yield was evaluated at 107 days after the canola seed emerged from the ground described above. […] As depicted in FIG. 4, the low use rate of sulfoxaflor facilitated a canola plant yield similar to that facilitated by the use of Helix Xtra, and the high use rate of sulfoxaflor facilitated improved canola plant yield as compared to the use of Helix Xtra.

[3] abbreviates: high use rate about 0.6 mg ai/seed.
The mark [4] stands for this setting: low use rate about 0.2 mg ai/seed.

As to `CC(c1ccc(C(F)(F)F)nc1)S(C)(=O)=NC#N` (stereo not shown) [sulfoxaflor], the canola plant vigor result in the test on canola (Brassica napus) [1] (setting [3]) is “about 69%”; with canola (Brassica napus) [1] (setting [4]), “about 87%”. For the same compound, the canola plant yield entry in the test with canola (Brassica napus) [2] (setting [3]) is listed as “about 4500 kg/ha”; in the test with canola (Brassica napus) [2] (setting [4]), “about 4050 kilograms (Kg)/hectare (ha)”.
